Target: T1, Endothelial lipase (EL) (Homo sapiens, UniProt Q9Y5X9)
T1 construct: HT-1080 cells that were transformed using RAGE technology (Athersys) to overexpress endogenous EL; endogenous in cells; conditioned medium used
T1 sequence (Q9Y5X9 21-500): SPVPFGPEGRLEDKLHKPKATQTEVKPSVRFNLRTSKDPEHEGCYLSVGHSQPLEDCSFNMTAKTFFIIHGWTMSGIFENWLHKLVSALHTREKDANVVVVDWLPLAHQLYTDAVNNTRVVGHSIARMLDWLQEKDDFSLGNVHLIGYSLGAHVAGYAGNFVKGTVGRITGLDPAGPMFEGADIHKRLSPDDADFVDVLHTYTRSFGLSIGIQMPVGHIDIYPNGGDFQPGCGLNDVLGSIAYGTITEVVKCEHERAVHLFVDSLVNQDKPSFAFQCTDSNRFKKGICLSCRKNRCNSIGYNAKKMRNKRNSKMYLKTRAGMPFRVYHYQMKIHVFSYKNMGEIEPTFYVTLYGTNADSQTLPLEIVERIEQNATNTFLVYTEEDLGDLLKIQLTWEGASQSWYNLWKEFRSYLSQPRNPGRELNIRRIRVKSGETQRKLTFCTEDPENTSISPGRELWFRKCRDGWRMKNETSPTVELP
Assay: Endothelial lipase (EL) enzymatic assay, fluorescent substrate A10070 in DMPG vesicles
Format: biochemical
Conditions: EL from conditioned media of HT-1080 cells; compound preincubated 30 min at 37° C; read-out: EL IC50
Experimental: Endothelial lipase (EL) and hepatic lipase (HL) activities were measured using a fluorescent substrate, A10070, (Invitrogen, CA) doped into an artificial vesicle containing DMPG (Avanti Polar Lipids) as the excipient. Vesicles were prepared by combining 571 μL of 29 mM DMPG in a 1:1 mixture of MeOH and CHCl3 with 2000 μL of 1 mM A10070 in a 1:1 mixture of MeOH and CHCl3. The mixture was dried under nitrogen in multiple vials then resuspended in 20 mL total volume of 50 mM HEPES pH 8.0 buffer containing 50 mM NaCl and 0.2 mM EDTA. The sample was allowed to sit at room temperature for 15 min and then was sonicated 3×4 mins on ice with a Branson Sonicator using duty cycle 1. This preparation provides vesicles with a mole fraction of 0.11 for the FRET substrate.
The enzymatic assay was measured using 384-well white Optiplates. Each well contained 20 μL of assay buffer (50 mM HEPES pH 8.0, 50 mM NaCl and 1 mM CaCl2) and 0.25 μL of a DMSO solution containing a compound of interest. EL or HL (10 μL) was added and allowed to incubate with the compound for 30 min at 37° C. The source of EL was conditioned media obtained from HT-1080 cells that were transformed using RAGE technology (Athersys) to overexpress endogenous EL, and HL was partially purified from conditioned media obtained from COS cells overexpressing HL. The reaction was started by the addition of 10 μL of a 1:10 dilution of vesicles. The final total reaction volume was […]. The reaction rates were measured on a Gemini plate reader with an excitation wavelength of 490 nm and an emission wavelength of 530 nm. Readings were taken over a period of 60 minutes, and the slope between 300 and 900 secs of the readout was used to calculate the rate of the reaction.

Compound	IC50 [nM]
COc1nc(-c2nnc(C(c3nc4ccc(-c5ccccc5)cc4s3)S(=O)(=O)CCC(F)(F)F)o2)c(O)c(=O)[nH]1 (centres unmarked) [Example 44, 5-Hydroxy-2-methoxy-6-(5-((6-phenylbenzo[d]thiazol-2-yl)((3,3,3-trifluoropropyl)sulfonyl)methyl)-1,3,4-oxadiazol-2-yl)pyrimidin-4(3H)-one]	77
NS(=O)(=O)NCc1nnc(C(c2nc3ccc(-c4ccccc4)cc3s2)S(=O)(=O)Cc2ccccc2)o1 (centres unmarked) [Example 47, N-((5-((benzylsulfonyl) (6-phenyl-1,3-benzothiazol-2-yl)methyl)-1,3,4-oxadiazol-2-yl)methyl)sulfamide]	< 10
NS(=O)(=O)NCc1nnc(C(c2nc3ccc(-c4ccccc4)cc3s2)S(=O)(=O)Cc2ccc(C(F)(F)F)cc2)o1 (centres unmarked) [Example 48, N-((5-((6-phenyl-1,3-benzothiazol-2-yl)((4-(trifluoromethyl)benzyl)sulfonyl)methyl)-1,3,4-oxadiazol-2-yl)methyl)sulfamide]	< 10
NS(=O)(=O)NCc1nnc(C(c2nc3ccc(-c4ccccc4)cc3s2)S(=O)(=O)CCC(F)(F)F)o1 (centres unmarked) [Example 50, N-[(5-{(6-phenyl-1,3-benzothiazol-2-yl) [(3,3,3-trifluoropropyl)sulfonyl]methyl}-1,3,4-oxadiazol-2-yl)methyl]sulfuric diamide]	< 10
NS(=O)(=O)NCc1nnc(C(c2nc3ccc(-c4ccccc4)cc3s2)S(=O)(=O)CCN2C(=O)c3ccccc3C2=O)o1 (centres unmarked) [Example 52, N-[(5-{(6-phenyl-1,3-benzothiazol-2-yl) ([2-(1,3-dioxo-1,3-dihydro-2H-isoindol-2-yl)ethyl]sulfonyl)methyl}-1,3,4-oxadiazol-2-yl)methyl]sulfuric diamide]	< 10
NS(=O)(=O)NCc1nnc(C(c2nc3ccc(-c4ccccc4)cc3s2)S(=O)(=O)C2CCOCC2)o1 (centres unmarked) [Example 53, N-({5-[6-phenyl-1,3-benzothiazol-2-yl (tetrahydro-2H-pyran-4-ylsulfonyl)methyl]-1,3,4-oxadiazol-2-yl}methyl) sulfuric diamide]	< 10
NS(=O)(=O)NCc1nnc(C(c2nc3ccc(-c4ccccc4)cc3s2)S(=O)(=O)CCCc2ccccc2)o1 (centres unmarked) [Example 54, N-((5-((6-phenyl-1,3-benzothiazol-2-yl) ((3-phenylpropyl)sulfonyl)methyl)-1,3,4-oxadiazol-2-yl)methyl) sulfamide]	~10
NS(=O)(=O)NCc1nnc(C(c2nc3ccc(-c4ccccc4)cc3s2)S(=O)(=O)Cc2cccc(F)c2)o1 (centres unmarked) [Example 56, N-((5-(((3-fluorobenzyl)sulfonyl)(6-phenyl-1,3-benzothiazol-2-yl)methyl)-1,3,4-oxadiazol-2-yl)methyl)sulfamide]	< 10
NS(=O)(=O)NCc1nnc(C(c2nc3ccc(-c4ccccc4)cc3s2)S(=O)(=O)Cc2cccc(Br)c2)o1 (centres unmarked) [Example 57]	< 10
NS(=O)(=O)NCc1nnc(C(c2nc3ccc(-c4ccccc4)cc3s2)S(=O)(=O)Cc2ccc(Cl)cc2)o1 (centres unmarked) [Example 58, N-((5-(((4-chlorobenzyl)sulfonyl)(6-phenyl-1,3-benzothiazol-2-yl)methyl)-1,3,4-oxadiazol-2-yl)methyl)sulfamide]	< 10
NS(=O)(=O)NCc1nnc(C(c2nc3ccc(-c4ccccc4)cc3s2)S(=O)(=O)Cc2cc(Cl)cc(Cl)c2)o1 (centres unmarked) [Example 59, N-((5-(((3,5-dichlorobenzyl)sulfonyl)(6-phenyl-1,3-benzothiazol-2-yl)methyl)-1,3,4-oxadiazol-2-yl)methyl)sulfamide]	< 10
NS(=O)(=O)NCc1nnc(C(c2nc3ccc(-c4ccccc4)cc3s2)S(=O)(=O)Cc2ccc(Cl)c(Cl)c2)o1 (centres unmarked) [Example 60, N-((5-(((3,4-chlorobenzyl)sulfonyl)(6-phenyl-1,3-benzothiazol-2-yl)methyl)-1,3,4-oxadiazol-2-yl)methyl)sulfamide]	< 10
NS(=O)(=O)NCc1nnc(C(c2nc3ccc(-c4ccccc4)cc3s2)S(=O)(=O)CC2CC2)o1 (centres unmarked) [Example 61, N-[(5-{6-phenyl-1,3-benzothiazol-2-yl [(cyclopropylmethyl)sulfonyl]methyl}-1,3,4-oxadiazol-2-yl)methyl]sulfuric diamide]	< 10
NS(=O)(=O)NCc1nnc(C(c2nc3ccc(-c4ccccc4)cc3s2)S(=O)(=O)Cc2cccc(C(F)(F)F)c2)o1 (centres unmarked) [Example 62, N-((5-(((3-(trifluoromethyl)benzyl)sulfonyl) (6-phenyl-1,3-benzothiazol-2-yl)methyl)-1,3,4-oxadiazol-2-yl)methyl)sulfamide]	< 10
NS(=O)(=O)NCc1nnc(C(c2nc3ccc(-c4ccccc4)cc3s2)S(=O)(=O)CCCC(F)(F)F)o1 (centres unmarked) [Example 63, N-[(5-{(6-phenyl-1,3-benzothiazol-2-yl) [(4,4,4-trifluorobutyl)sulfonyl]methyl}-1,3,4-oxadiazol-2-yl)methyl] sulfuric diamide]	< 10
Cc1cccc(CS(=O)(=O)C(c2nnc(CNS(N)(=O)=O)o2)c2nc3ccc(-c4ccccc4)cc3s2)c1 (centres unmarked) [Example 64, N-((5-(((3-methylbenzyl)sulfonyl)(6-phenyl-1,3-benzothiazol-2-yl)methyl)-1,3,4-oxadiazol-2-yl)methyl)sulfamide]	< 10
NS(=O)(=O)NCc1nnc(C(c2nc3ccc(-c4ccccc4)cc3s2)S(=O)(=O)C2CCCC2)o1 (centres unmarked) [Example 67, N-({5-[(cyclopentylsulfonyl) (6-phenyl-1,3-benzothiazol-2-yl)methyl]-1,3,4-oxadiazol-2-yl}methyl)sulfuric diamide]	< 10

Second part, the compound after the results:

IC50 [nM]	Compound
14	COc1nc(-c2nnc(C(c3nc4ccc(-c5ccc(F)cc5)cc4s3)S(C)(=O)=O)o2)c(O)c(=O)[nH]1 (centres unmarked) [Example 43, 6-(5-((6-(4-Fluorophenyl)benzo[d]thiazol-2-yl)(methylsulfonyl)methyl)-1,3,4-oxadiazol-2-yl)-5-hydroxy-2-methoxypyrimidin-4(3H)-one]
< 10	CS(=O)(=O)C(c1nnc(C[C@@H]2NS(=O)(=O)NC2=O)o1)c1nc2ccc(-c3ccccc3)cc2s1 (stereo partly drawn) [Example 45, (4S)-4-((5-((Methylsulfonyl)(6-phenylbenzo[d]thiazol-2-yl)methyl)-1,3,4-oxadiazol-2-yl)methyl)-1,2,5-thiadiazolidin-3-one 1,1-dioxide]
< 10	CS(=O)(=O)C(c1nnc(CNS(N)(=O)=O)o1)c1nc2ccc(-c3ccccc3)cc2s1 (centres unmarked) [Example 46, N-({5-[(M ethylsulfonyl)(6-phenyl-1,3-benzothiazol-2-yl)methyl]-1,3,4-oxadiazol-2-yl}methyl)sulfuric diamide]
< 10	CC(C)S(=O)(=O)C(c1nnc(CNS(N)(=O)=O)o1)c1nc2ccc(-c3ccccc3)cc2s1 (centres unmarked) [Example 49]
< 10	NS(=O)(=O)NCc1nnc(C(c2nc3ccc(-c4ccccc4)cc3s2)S(=O)(=O)Cc2ccccc2F)o1 (centres unmarked) [Example 51, N-((5-(((2-fluorobenzyl)sulfonyl)(6-phenyl-1,3-benzothiazol-2-yl)methyl)-1,3,4-oxadiazol-2-yl)methyl)sulfamide]
< 10	COc1ccc(OCCCS(=O)(=O)C(c2nnc(CNS(N)(=O)=O)o2)c2nc3ccc(-c4ccccc4)cc3s2)cc1 (centres unmarked) [Example 55, N-((5-(((3-(4-methoxyphenoxy)propyl)sulfonyl) (6-phenyl-1,3-benzothiazol-2-yl)methyl)-1,3,4-oxadiazol-2-yl)methyl)sulfamide]
< 10	CCS(=O)(=O)C(c1nnc(CNS(N)(=O)=O)o1)c1nc2ccc(-c3ccccc3)cc2s1 (centres unmarked) [Example 65, N-({5-[(ethylsulfonyl) (6-phenyl-1,3-benzothiazol-2-yl)methyl]-1,3,4-oxadiazol-2-yl}methyl)sulfuric diamide]
< 10	CCCS(=O)(=O)C(c1nnc(CNS(N)(=O)=O)o1)c1nc2ccc(-c3ccccc3)cc2s1 (centres unmarked) [Example 66, N-({5-[(propylsulfonyl) (6-phenyl-1,3-benzothiazol-2-yl)methyl]-1,3,4-oxadiazol-2-yl}methyl) sulfuric diamide]
< 10	CC(C)CS(=O)(=O)C(c1nnc(CNS(N)(=O)=O)o1)c1nc2ccc(-c3ccccc3)cc2s1 (centres unmarked) [Example 68, N-[(5-{6-phenyl-1,3-benzothiazol-2-yl[(2-methylpropyl)sulfonyl]methyl}-1,3,4-oxadiazol-2-yl)methyl]sulfuric diamide]

From patent US20140011799A1 (Bristol-Myers Squibb Company, priority 2012, published 2014)
